# Measurements: US20110195924A1, “Methods of Inhibiting the Interaction Between S100P and the Receptor for Advanced Glycation End-Products” (priority 2008, published 2011)
# Legend:
# MPanc-96 tumors = test: MPanc-96 orthotopic tumor growth and metastasis in scid mice; type: in vivo; conditions: MPanc-96 model; for lung metastasis, mean: control 5.9×10^7; for liver metastasis, mean: control 9.4×10^8; for tumor burden, mean: gemcitabine 125 mg/kg bi-weekly i.p., cromolyn 5 mg/kg daily i.p., end of six weeks, control 1.1×10^10
# Procedure: FIGS. 5A-5F show the effect of cromolyn on MPanc-96 tumor growth and metastasis in vivo. MPanc-96 cells stably expressing the firefly luciferase gene were injected orthotopically into 4-week-old male CB 17 scid mice. […] Mice were divided into four groups of five mice each with an equivalent mean tumor size between groups. […] One group was treated with water (control), one group received gemcitabine bi-weekly (125 mg per kg body weight bi-weekly by intraperitoneal injection), one group was administered cromolyn daily (5 mg per kg body weight daily by intraperitoneal injection), and the final group was given the combination of cromolyn and gemcitabine. All groups were treated for six weeks. Bioluminescent imaging was done weekly to assess tumor growth. […] Means and 95% confidence intervals from two independent experiments are shown (n=20). Two-tailed two-sample (unpaired) Student's t-tests were used to determine P values. The anti-tumorigenic capability of the drug cromolyn was assessed in 4-week-old male CB 17 scid mice (n=20) carrying orthopic tumors of BxPC-3, MPanc96, and Panc-1 cells stably expressing a Lenti-luc reporter. All mouse experiments were reviewed and approved by the Institutional Animal Care and Use Committee of UT MD Anderson Cancer Center. All mice were maintained in a sterile environment. Cages, bedding, food, and water were all autoclaved. All mice were maintained on a daily 12-hour light/12-hour dark cycle, according to the institutional animal welfare guidelines. BxPC-3, MPanc96, and Pane-1 cells carrying the Lenti-luc reporter gene were grown to 80% confluence, harvested by incubation with trypsin-EDTA, washed twice in PBS, and resuspended to a final concentration of 4.0×10^6 cells/mL. Each mouse (n=20 mice per cell line) was injected (into the pancreas) with cell suspensions (50 μL). Bioluminescent imaging to determine tumor volume was performed 1 week after injection because the tumors became established within this amount of time. This initial tumor volume was used to divide the mice into four groups of five mice each, such that the mean tumor size was equal between groups (FIGS. 4A, 5A, and 6A). To allow enough time to observe differences among treatment groups, the mice were followed for the next 5 weeks. One group of mice was then treated biweekly with a sub-maximal concentration of gemcitabine (125 mg per kg body weight by i.p. injection). A second group was treated with a daily injection of cromolyn (5 mg per kg body weight by i.p. injection). A third group was treated with both bi-weekly gemcitabine and daily cromolyn. The control group was treated daily with vehicle. Treatments were continued for 5 weeks, and the effects on the tumor burden and metastasis were analyzed by weekly bioluminescence imaging (FIGS. 4B, 5B, and 6B). At the end of the experiment the mice were anesthetized with 1.5% isofluorane/air mixture and killed by cervical dislocation. Bioluminescence imaging was conducted using a cryogenically cooled IVIS 100 imaging system coupled to a data acquisition computer running Living Image software (Xenogen Corp., Alameda, Calif.). Before imaging, mice were placed in an acrylic chamber, anesthetized with 1.5% isofluorane/air mixture, and injected i.p. with 15 mg/mL of luciferin potassium salt in PBS at a dose of 150 mg per kg body weight. A digital grey scale image of each mouse was acquired, followed by acquisition and overlay of a pseudocolor image representing the spatial distribution of detected photons emerging from active luciferase within the mouse. Tumor volume was quantified as the sum of all detected photons within the region of the tumor per second. At the end of experiment, the mice were killed, and tumors were surgically removed and weighed. After the primary tumors were removed, cancer cell dissemination and metastasis was visualized using IVIS imaging, and metastatic colonies were counted. […]
# BxPC-3 tumors = test: BxPC-3 orthotopic tumor growth and metastasis in scid mice; type: in vivo; conditions: BxPC-3 model; for lung metastasis, mean: control 5.5×10^8; for tumor burden, difference versus control / tumor burden, mean: end of six weeks; for tumor burden, mean: gemcitabine 125 mg/kg bi-weekly i.p., cromolyn 5 mg/kg daily i.p., control 1.6×10^9
# Procedure: FIGS. 4A-4F show the effect of cromolyn on BxPC-3 tumor growth and metastasis in vivo. BxPC-3 cells stably expressing the firefly luciferase gene were injected orthotopically into 4 week old male CB 17 scid mice. […] Mice were divided into four groups of five mice each with an equivalent mean tumor size between groups. […] One group was treated with water (control), one group received gemcitabine bi-weekly (125 mg kg body weight bi-weekly by intraperitoneal injection), one group was administered cromolyn daily (5 mg per kg body weight daily by intraperitoneal injection), and the final group was given the combination of daily cromolyn and bi-weekly gemcitabine. All groups were treated for six weeks. Bioluminescent imaging was done weekly to assess tumor growth. […] Means and 95% confidence intervals are shown. (n=20). Two-tailed two-sample (unpaired) Student's t-tests were used to determine P values. The anti-tumorigenic capability of the drug cromolyn was assessed in 4-week-old male CB 17 scid mice (n=20) carrying orthopic tumors of BxPC-3, MPanc96, and Panc-1 cells stably expressing a Lenti-luc reporter. All mouse experiments were reviewed and approved by the Institutional Animal Care and Use Committee of UT MD Anderson Cancer Center. All mice were maintained in a sterile environment. Cages, bedding, food, and water were all autoclaved. All mice were maintained on a daily 12-hour light/12-hour dark cycle, according to the institutional animal welfare guidelines. BxPC-3, MPanc96, and Pane-1 cells carrying the Lenti-luc reporter gene were grown to 80% confluence, harvested by incubation with trypsin-EDTA, washed twice in PBS, and resuspended to a final concentration of 4.0×10^6 cells/mL. Each mouse (n=20 mice per cell line) was injected (into the pancreas) with cell suspensions (50 μL). Bioluminescent imaging to determine tumor volume was performed 1 week after injection because the tumors became established within this amount of time. This initial tumor volume was used to divide the mice into four groups of five mice each, such that the mean tumor size was equal between groups (FIGS. 4A, 5A, and 6A). To allow enough time to observe differences among treatment groups, the mice were followed for the next 5 weeks. One group of mice was then treated biweekly with a sub-maximal concentration of gemcitabine (125 mg per kg body weight by i.p. injection). A second group was treated with a daily injection of cromolyn (5 mg per kg body weight by i.p. injection). A third group was treated with both bi-weekly gemcitabine and daily cromolyn. The control group was treated daily with vehicle. Treatments were continued for 5 weeks, and the effects on the tumor burden and metastasis were analyzed by weekly bioluminescence imaging (FIGS. 4B, 5B, and 6B). At the end of the experiment the mice were anesthetized with 1.5% isofluorane/air mixture and killed by cervical dislocation. Bioluminescence imaging was conducted using a cryogenically cooled IVIS 100 imaging system coupled to a data acquisition computer running Living Image software (Xenogen Corp., Alameda, Calif.). Before imaging, mice were placed in an acrylic chamber, anesthetized with 1.5% isofluorane/air mixture, and injected i.p. with 15 mg/mL of luciferin potassium salt in PBS at a dose of 150 mg per kg body weight. A digital grey scale image of each mouse was acquired, followed by acquisition and overlay of a pseudocolor image representing the spatial distribution of detected photons emerging from active luciferase within the mouse. Tumor volume was quantified as the sum of all detected photons within the region of the tumor per second. At the end of experiment, the mice were killed, and tumors were surgically removed and weighed. After the primary tumors were removed, cancer cell dissemination and metastasis was visualized using IVIS imaging, and metastatic colonies were counted. Subsequently, tissues were fixed with formaldehyde, and histology was used to verify the accuracy of the bioluminescence data. […]
compound,measurement,setting,value
Nc1ccn([C@@H]2O[C@H](CO)[C@@H](O)C2(F)F)c(=O)n1 [gemcitabine],"liver metastasis, difference versus control",MPanc-96 tumors,8.1×10^8 photons/sec
same,"lung metastasis, difference versus control",MPanc-96 tumors,5.4×10^7 photons/sec
same,"tumor burden, difference versus control",MPanc-96 tumors,6.9×10^9 photons/sec
same,"lung metastasis, mean",MPanc-96 tumors,5.0×10^6 photons/sec
same,"liver metastasis, mean",MPanc-96 tumors,1.2×10^8 photons/sec
same,"tumor burden, mean",MPanc-96 tumors,4.1×10^9 photons/sec
same,"body weight, difference versus control",BxPC-3 tumors,3.9 g
same,"lung metastasis, mean",BxPC-3 tumors,3.9×10^8 photons/sec
same,"body weight at the end of the experiment, mean",BxPC-3 tumors; control 31.1,27.2 g
same,"tumor burden, difference versus control",BxPC-3 tumors,6.8×10^8 photons/sec
same,"tumor burden, mean",BxPC-3 tumors,9.2×10^8 photons/sec
same,metastasis in lung or liver compared with control mice,BxPC-3 tumors; treatment alone,did not reduce
"O=C(O)c1cc(=O)c2c(OCC(O)COc3cccc4oc(C(=O)O)cc(=O)c34)cccc2o1 [cromolyn, disodium 1,3-bis[(2′-carboxylatochromon-5′-yl)oxy]-2-hydroxypropane]","liver metastasis, difference versus control",MPanc-96 tumors,7.2×10^8 photons/sec
same,"lung metastasis, difference versus control",MPanc-96 tumors,5.6×10^7 photons/sec
same,"tumor burden, difference versus control",MPanc-96 tumors,6.2×10^9 photons/sec
same,"lung metastasis, mean",MPanc-96 tumors,3.2×10^6 photons/sec
same,"liver metastasis, mean",MPanc-96 tumors,2.2×10^8 photons/sec
same,"tumor burden, mean",MPanc-96 tumors,4.8×10^9 photons/sec
same,effect on body weight (in words),MPanc-96 tumors; up to 6 weeks,no effect
same,liver metastasis (in words),BxPC-3 tumors,but not liver metastasis
same,"lung metastasis, difference versus control",BxPC-3 tumors,3.9×10^8 photons/sec
same,"lung metastasis, mean",BxPC-3 tumors,1.6×10^8 photons/sec
same,"tumor burden, difference versus control",BxPC-3 tumors,1.2×10^9 photons/sec
same,"tumor burden, mean",BxPC-3 tumors,4.4×10^8 photons/sec
same,effect on body weight (in words),BxPC-3 tumors; up to 6 weeks,no effect
